# Results as given in paper PMC10733463, “Berberine-microbiota interplay: orchestrating gut health through modulation of the gut microbiota and metabolic transformation into bioactive metabolites” (Frontiers in Pharmacology, 2023).
# Tested on: caecal microbiota cultures
# Experiment: 16S sequencing of total (DNA) and active (cDNA) community in caecal microbiota cultures, BBR vs Control
# Type: cell-based, broiler chicken
# Conditions: 48 h; for L2FC BBRRNA vs ControlRNA: active (cDNA) community; for L2FC BBRRNA vs BBRDNA: active vs total community in BBR group; for L2FC BBRDNA vs ControlDNA: total (DNA) community
# [1] = OTU 563086 ([Ruminococcus] torques group)
# [2] = OTU 574038 (uncultured Lachnospiraceae)
# [3] = OTU 579244 (Ruminiclostridium 9)
# [4] = OTU 592616 (Erysipelatoclostridium)
# [5] = OTU 647215 (uncultured Ruminococcaceae)
# [6] = OTU 843454 (Family_Lachnospiraceae)
# [7] = OTU 1094991 (Ruminococcaceae UCG-005)
# [8] = OTU 2265722 (uncultured Lachnospiraceae)
# [9] = OTU 4404181 (uncultured Ruminococcaceae)
# [10] = OTU New.CleanUp.ReferenceOTU4902 (Erysipelatoclostridium)
# [11] = OTU New.ReferenceOTU85 (Anaerofilum)
# [12] = OTU New.ReferenceOTU111 (Lachnospiraceae UCG-010)
# [13] = OTU New.ReferenceOTU118 (Erysipelatoclostridium)
# [14] = OTU New.ReferenceOTU144 (Erysipelatoclostridium)
# [15] = OTU New.ReferenceOTU364 (Streptococcus)
# [16] = OTU New.ReferenceOTU377 (uncultured Ruminococcaceae)
# [17] = OTU New.ReferenceOTU392 (Intestinimonas)
# [18] = OTU New.ReferenceOTU395 (Ruminiclostridium 9)
# [19] = OTU New.ReferenceOTU429 (Erysipelatoclostridium)
# [20] = OTU New.ReferenceOTU462 (Erysipelatoclostridium)
# [21] = OTU New.ReferenceOTU476 (Escherichia-Shigella)
# [22] = OTU New.ReferenceOTU486 (Streptococcus)
# [23] = OTU New.ReferenceOTU551 (uncultured Ruminococcaceae)
structure (smiles),measurement,setting,value
"COc1ccc2cc3[n+](cc2c1OC)CCc1cc2c(cc1-3)OCO2 [Berberine, Berberine chloride]",L2FC BBRRNA vs ControlRNA,[1],-0.24
same,L2FC BBRRNA vs BBRDNA,[1],-1.93
same,L2FC BBRDNA vs ControlDNA,[1],-0.39
same,L2FC BBRRNA vs ControlRNA,OTU 564334 (Oscillibacter),-0.38
same,L2FC BBRRNA vs BBRDNA,OTU 564334 (Oscillibacter),2.35
same,L2FC BBRDNA vs ControlDNA,OTU 564334 (Oscillibacter),-0.21
same,L2FC BBRRNA vs ControlRNA,[2],-1.65
same,L2FC BBRRNA vs BBRDNA,[2],-0.24
same,L2FC BBRDNA vs ControlDNA,[2],-2.16
same,L2FC BBRRNA vs ControlRNA,[3],-1.11
same,L2FC BBRRNA vs BBRDNA,[3],2.49
same,L2FC BBRDNA vs ControlDNA,[3],-1.32
same,L2FC BBRRNA vs ControlRNA,OTU 585227 (Oscillibacter),0.12
same,L2FC BBRRNA vs BBRDNA,OTU 585227 (Oscillibacter),2.44
same,L2FC BBRDNA vs ControlDNA,OTU 585227 (Oscillibacter),0.21
same,L2FC BBRRNA vs ControlRNA,[4],0.37
same,L2FC BBRRNA vs BBRDNA,[4],1.49
same,L2FC BBRDNA vs ControlDNA,[4],0.67
same,L2FC BBRRNA vs ControlRNA,[5],0.58
same,L2FC BBRRNA vs BBRDNA,[5],2.24
same,L2FC BBRDNA vs ControlDNA,[5],0.49
same,L2FC BBRRNA vs ControlRNA,OTU 813944 (Lactobacillus),1.85
same,L2FC BBRRNA vs BBRDNA,OTU 813944 (Lactobacillus),1.33
same,L2FC BBRDNA vs ControlDNA,OTU 813944 (Lactobacillus),1.53
same,L2FC BBRRNA vs ControlRNA,OTU 842786 (Intestinimonas),-0.59
same,L2FC BBRRNA vs BBRDNA,OTU 842786 (Intestinimonas),2.24
same,L2FC BBRDNA vs ControlDNA,OTU 842786 (Intestinimonas),-0.09
same,L2FC BBRRNA vs ControlRNA,[6],0.55
same,L2FC BBRRNA vs BBRDNA,[6],-1.17
same,L2FC BBRDNA vs ControlDNA,[6],-0.19
same,L2FC BBRRNA vs ControlRNA,OTU 847728 (Ruminococcus 2),-0.72
same,L2FC BBRRNA vs BBRDNA,OTU 847728 (Ruminococcus 2),1.54
same,L2FC BBRDNA vs ControlDNA,OTU 847728 (Ruminococcus 2),-0.88
same,L2FC BBRRNA vs ControlRNA,[7],-1.26
same,L2FC BBRRNA vs BBRDNA,[7],1.01
same,L2FC BBRDNA vs ControlDNA,[7],-1.67
same,L2FC BBRRNA vs ControlRNA,OTU 1107057 (Anaerostipes),-0.90
same,L2FC BBRRNA vs BBRDNA,OTU 1107057 (Anaerostipes),-2.55
same,L2FC BBRDNA vs ControlDNA,OTU 1107057 (Anaerostipes),-1.14
same,L2FC BBRRNA vs ControlRNA,OTU 1132942 (Butyricicoccus),0.64
same,L2FC BBRRNA vs BBRDNA,OTU 1132942 (Butyricicoccus),-3.15
same,L2FC BBRDNA vs ControlDNA,OTU 1132942 (Butyricicoccus),0.37
same,L2FC BBRRNA vs ControlRNA,[8],2.76
same,L2FC BBRRNA vs BBRDNA,[8],-0.46
same,L2FC BBRDNA vs ControlDNA,[8],1.22
same,L2FC BBRRNA vs ControlRNA,[9],0.08
same,L2FC BBRRNA vs BBRDNA,[9],-1.72
same,L2FC BBRDNA vs ControlDNA,[9],0.40
same,L2FC BBRRNA vs ControlRNA,[10],-2.19
same,L2FC BBRRNA vs BBRDNA,[10],-0.05
same,L2FC BBRDNA vs ControlDNA,[10],-1.03
same,L2FC BBRRNA vs ControlRNA,[11],-1.45
same,L2FC BBRRNA vs BBRDNA,[11],-0.84
same,L2FC BBRDNA vs ControlDNA,[11],-1.62
same,L2FC BBRRNA vs ControlRNA,[12],-1.27
same,L2FC BBRRNA vs BBRDNA,[12],-1.92
same,L2FC BBRDNA vs ControlDNA,[12],-0.42
same,L2FC BBRRNA vs ControlRNA,[13],-1.90
same,L2FC BBRRNA vs BBRDNA,[13],-0.75
same,L2FC BBRDNA vs ControlDNA,[13],-0.82
same,L2FC BBRRNA vs ControlRNA,[14],0.42
same,L2FC BBRRNA vs BBRDNA,[14],1.64
same,L2FC BBRDNA vs ControlDNA,[14],0.55
same,L2FC BBRRNA vs ControlRNA,[15],-0.92
same,L2FC BBRRNA vs BBRDNA,[15],-0.91
same,L2FC BBRDNA vs ControlDNA,[15],-1.70
same,L2FC BBRRNA vs ControlRNA,[16],-0.22
same,L2FC BBRRNA vs BBRDNA,[16],1.91
same,L2FC BBRDNA vs ControlDNA,[16],-0.81
same,L2FC BBRRNA vs ControlRNA,[17],-0.28
same,L2FC BBRRNA vs BBRDNA,[17],1.69
same,L2FC BBRDNA vs ControlDNA,[17],-0.31
same,L2FC BBRRNA vs ControlRNA,[18],-1.01
same,L2FC BBRRNA vs BBRDNA,[18],2.37
same,L2FC BBRDNA vs ControlDNA,[18],-1.00
same,L2FC BBRRNA vs ControlRNA,[19],0.23
same,L2FC BBRRNA vs BBRDNA,[19],1.73
same,L2FC BBRDNA vs ControlDNA,[19],0.65
same,L2FC BBRRNA vs ControlRNA,[20],-0.55
same,L2FC BBRRNA vs BBRDNA,[20],1.51
same,L2FC BBRDNA vs ControlDNA,[20],-0.78
same,L2FC BBRRNA vs ControlRNA,[21],-0.42
same,L2FC BBRRNA vs BBRDNA,[21],1.67
same,L2FC BBRDNA vs ControlDNA,[21],-0.75
same,L2FC BBRRNA vs ControlRNA,[22],-0.10
same,L2FC BBRRNA vs BBRDNA,[22],-0.33
same,L2FC BBRDNA vs ControlDNA,[22],-2.01
same,L2FC BBRRNA vs ControlRNA,[23],0.00
same,L2FC BBRRNA vs BBRDNA,[23],2.70
same,L2FC BBRDNA vs ControlDNA,[23],0.58
